Values of other authors in US20050137198A1, “Stable hydrazalazine pharmaceutical compositions” (priority 2003, published 2005).
Read-outs that look alike come from different tables or passages of the source.

Test system: vascular smooth muscle

Compound: NNc1nncc2ccccc12 [Hydralazine, 1-hydrazinophthalazine]
- onset of action (given intravenously): 10 to 20 min
- duration of action (in vivo): 3 to 4 h
- onset of action (in vivo): 10 to 30 min
- time of maximum hypotensive effect (in vivo): 10 to 80 min
